Laboratory results: patent US20100035793A1, “Modulators” (priority 2005, published 2010)

Columns and labels:
KF48 keloid fibroblasts [1] = assay: XTT proliferation assay; assay type: cell-based, human
Excerpt: Inhibition of Stat3 decreases cell proliferation. Enhanced fibroblast proliferation is a characteristic of keloid tissue. In agreement with this, keloid fibroblasts grown in normal culture conditions proliferated faster than normal fibroblasts, as observed in KF48 and KF107 compared to NF2 and NF4 (FIG. 6A). To investigate whether Stat3 is involved in the enhanced keloid fibroblast proliferation, KF48 was infected with retrovirus expressing Stat3 siRNAs, and cell proliferation was examined. […] XTT proliferation assay. Cells seeded at 3,000 cells/well in 96-well plates and grown in normal growth conditions, or infected with retroviral Stat3 siRNAs, were assayed for proliferation using the XrT proliferation kit (Roche) according to the manufacturer's instructions. The readings were taken at 450 nm and referenced against 690 nm, 2 h after the addition of the XrT reagent. Each sample was performed at quadruplicates in two to three independent experiments. Data are presented as mean±SD
Cell proliferation was also investigated by treating KF48 cells with various doses of Cucurbitacin I or with DMSO control, before incubating in normal growth media and examined daily over 4 days. Cucurbitacin I concentration as low as I μM was able to inhibit cell proliferation of KF48 compared to DMSO and untreated control (0 μM), whereas Cucurbitacin I exposure at 5 μM and above seemed to cause cell death (FIG. 6C).

KF48 keloid fibroblasts [2] = assay: Scratch-wound migration assay; assay type: cell-based, human
Protocol: Cell migration in keloidflbroblasts is inhibited by Stat3 siRNA and Cucurbitacin I. To examine the role of Stat3 in cell migration of skin fibroblasts, KF48 cells were infected with retrovirus expressing Stat3 siRNAs and scratch assays were performed as previously described. […] Three non-overlapping fields were acquired, and graphically illustrated as mean±SD in FIG. 8B. Transmembrane cell migration assays were also performed in triplicates as described earlier, and quantified as mean±SD (FIG. 8C). […] The right panels in FIG. 8B and 8C depict immunoblots of Stat3 and actin to show the efficiencies of inhibition by the Stat3 siRNAs.
The role of Stat3 in cell migration was also examined using Cucurbitacin I in the scratch assay. KF48 cells were first incubated with 10 μg/ml mitomycin C for 2 h, before treating for 30 min with DMSO or 1 μM Cucurbitacin I. The scratch-wound was performed, followed by further incubation in normal growth media. Pictures were taken at 0 h, 22 h and 48 h after wounding.
Migration assay. For migration assay using the scratch method, cells were grown to confluence and incubated with 10 μg/ml mitomycin C for 2 h, before a scratch wound was introduced using a yellow pipette tip. Cells were further incubated in normal growth media and pictures were taken at 0 h, 14 h, 15 h, 22 h, or 48 h after wounding. Three non-overlapping fields were captured by Axiovert 135 microscope from Zeiss and cells migrated into the wound site were counted and presented as mean±SD.

collagen = assay: Western blot of collagen production in KF48 keloid fibroblasts; assay type: cell-based, human; conditions: KF48, Cucurbitacin I 30 min then 48 h in growth media, FIG. 5B
Protocol: These vectors containing Stat3 siRNA targets and empty vector were transfected into 293T-based Phoenix-Ampho packaging cell line for 7-9 h, and the amphotropic retroviruses were harvested 48 h later, pelleted to remove nonadherent cells and cellular debris, and filtered through a […] cellulose acetate membrane. The keloid fibroblasts were infected overnight in the presence of 4 μg/ml polybrene, and replaced with fresh 10% FBS/DMEM the following day. Cells were assayed for Western blot 48 h after infection, or for XTT cell proliferation, or for migration assay which was performed by replating the cells into 8 μM Transwell membrane and fixed 24 h later as described above.
(§1) Inhibition of Stat3 was also evaluated by incubating KF48 for 30 min with various doses of Cucurbitacin I, an inhibitor of Jak2/Stat3 activation (32), or with DMSO alone as a control, followed by further incubation in normal growth media for 48 h. […] Cucurbitacin I was acquired from Galchimia (A Corufia, Spain).
Western blot. Cells were either harvested in radioimmune precipitation assay (RIPA) buffer (150 mM NaCl, 50 mM Tris-HCl, pH 7.2, 1% deoxycholic acid, 1% Triton X-100, 0.25 mM EDTA, pH 8.0) containing protease inhibitor cocktail (Roche Diagnostics Corporation, Indianapolis, Ind., USA), or lysis buffer containing 150 mM NaCl, 10 mM Tris-HCl, pH 7.4, 0.5% Triton-X-100, 0.5% NP-40, 1 mM EDTA, 0.2 mM sodium vanadate, supplemented with protease inhibitor tablet. Total cell lysates were collected after centrifugation for 10 min at 4° C., and resolved in 7.5% or 10% polyacrylamide gel electrophoresis, and transferred to PVDF membranes (Bio-Rad Laboratories, Hercules, Calif., USA). The membranes were blotted with anti-phosphoTyr705 Stat3 antibody (1:1000 dilution; Cell Signaling, Beverly, Mass., USA) overnight at 4° C. overnight in PBS containing 1% BSA and 0.1% Tween 20, washed with PBS containing 0.2% Tween 20, and incubated with secondary anti-rabbit IgG antibody (1:2000 dilution; Sigma, Saint Louis, Mo., USA) for 1 h at room temperature, washed with PBS containing 0.2% Tween 20, followed by enhanced chemiluminescence (Amersham Biosciences, Buckinghamshire, UK) or Lumi-Light (Roche Diagnostics Corporation, Indianapolis, USA), and autoradiography. […]
Methods of assessing polypeptides regulated by STAT Collagen may be regulated by STAT 3 activation. monoclonal anti-human collagen I, II, III Was purchased from MONOSAN (Uden, Netherlands). […] These were detected via western blot as described above.

A549 tumor = conditions: nude mice; cited from earlier work
Stat3 [3] = target: T1, Stat3 (Homo sapiens, UniProt P40763); assay: Western blot of Stat3 phosphorylation and expression in KF48 treated with Cucurbitacin I; assay type: cell-based; set-up: primary fibroblasts derived from normal skin and keloid tissues were further examined; endogenous in cells; host or cells: KF48 primary keloid fibroblasts
Protocol: as §1
Target sequence in this assay (P40763 whole entry): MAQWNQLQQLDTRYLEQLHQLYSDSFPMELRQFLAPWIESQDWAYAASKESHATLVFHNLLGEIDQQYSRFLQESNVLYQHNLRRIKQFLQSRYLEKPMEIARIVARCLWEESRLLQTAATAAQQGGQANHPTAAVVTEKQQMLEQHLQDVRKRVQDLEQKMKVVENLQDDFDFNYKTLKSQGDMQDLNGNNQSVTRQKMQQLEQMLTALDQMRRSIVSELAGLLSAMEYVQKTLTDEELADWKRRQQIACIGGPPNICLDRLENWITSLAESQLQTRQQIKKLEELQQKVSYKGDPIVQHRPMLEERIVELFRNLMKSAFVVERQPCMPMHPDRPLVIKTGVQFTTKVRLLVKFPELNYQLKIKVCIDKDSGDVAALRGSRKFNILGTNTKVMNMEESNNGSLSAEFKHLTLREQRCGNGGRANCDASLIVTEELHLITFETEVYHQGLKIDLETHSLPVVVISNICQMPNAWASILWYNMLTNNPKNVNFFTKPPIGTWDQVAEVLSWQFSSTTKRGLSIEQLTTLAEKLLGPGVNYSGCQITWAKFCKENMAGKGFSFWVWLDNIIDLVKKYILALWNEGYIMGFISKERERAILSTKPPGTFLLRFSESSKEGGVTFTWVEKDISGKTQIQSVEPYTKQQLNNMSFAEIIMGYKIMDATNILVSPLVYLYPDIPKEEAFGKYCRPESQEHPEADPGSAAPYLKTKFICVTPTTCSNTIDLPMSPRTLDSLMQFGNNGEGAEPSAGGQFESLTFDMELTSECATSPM
Western blot. Cells were either harvested in radioimmune precipitation assay (RIPA) buffer (150 mM NaCl, 50 mM Tris-HCl, pH 7.2, 1% deoxycholic acid, 1% Triton X-100, 0.25 mM EDTA, pH 8.0) containing protease inhibitor cocktail (Roche Diagnostics Corporation, Indianapolis, Ind., USA), or lysis buffer containing 150 mM NaCl, 10 mM Tris-HCl, pH 7.4, 0.5% Triton-X-100, 0.5% NP-40, 1 mM EDTA, 0.2 mM sodium vanadate, supplemented with protease inhibitor tablet. Total cell lysates were collected after centrifugation for 10 min at 4° C., and resolved in 7.5% or 10% polyacrylamide gel electrophoresis, and transferred to PVDF membranes (Bio-Rad Laboratories, Hercules, Calif., USA). The membranes were blotted with anti-phosphoTyr705 Stat3 antibody (1:1000 dilution; Cell Signaling, Beverly, Mass., USA) overnight at 4° C. overnight in PBS containing 1% BSA and 0.1% Tween 20, washed with PBS containing 0.2% Tween 20, and incubated with secondary anti-rabbit IgG antibody (1:2000 dilution; Sigma, Saint Louis, Mo., USA) for 1 h at room temperature, washed with PBS containing 0.2% Tween 20, followed by enhanced chemiluminescence (Amersham Biosciences, Buckinghamshire, UK) or Lumi-Light (Roche Diagnostics Corporation, Indianapolis, USA), and autoradiography. The membranes were stripped with Restore Western Blotting Stripping Buffer (Pierce, Rockford, Ill., USA) according to manufacturer's instructions and reblotted with anti-phosphoSer727 Stat3 (1:1000 dilution; Cell Signaling, Beverly, Mass., USA) and secondary anti-mouse IgG antibody (1:2000 dilution; Sigma, Saint Louis, Mo., USA). The stripping and reblotting procedure was repeated with monoclonal anti-Stat3 (1:1000 dilution; BD Transduction Laboratories), polyclonal anti-actin (1:1000 dilution; Sigma) and monoclonal anti-collagen antibody (1:1000 dilution; MONOSAN).

Stat3 [4] = target: T1, Stat3; conditions: cited from earlier work
Target sequence in this assay (P40763 whole entry, species assumed): as the sequence (P40763 whole entry) above

[5] = tested on: A549 human lung carcinoma cells; set-up: dose or concentration left out as unconfirmed; conditions: Cucurbitacin I for 24 h; cited from earlier work
JAK2 = JAK2 (Homo sapiens, UniProt O60674); conditions: cited from earlier work
JAK2, sequence (O60674 whole entry, species assumed): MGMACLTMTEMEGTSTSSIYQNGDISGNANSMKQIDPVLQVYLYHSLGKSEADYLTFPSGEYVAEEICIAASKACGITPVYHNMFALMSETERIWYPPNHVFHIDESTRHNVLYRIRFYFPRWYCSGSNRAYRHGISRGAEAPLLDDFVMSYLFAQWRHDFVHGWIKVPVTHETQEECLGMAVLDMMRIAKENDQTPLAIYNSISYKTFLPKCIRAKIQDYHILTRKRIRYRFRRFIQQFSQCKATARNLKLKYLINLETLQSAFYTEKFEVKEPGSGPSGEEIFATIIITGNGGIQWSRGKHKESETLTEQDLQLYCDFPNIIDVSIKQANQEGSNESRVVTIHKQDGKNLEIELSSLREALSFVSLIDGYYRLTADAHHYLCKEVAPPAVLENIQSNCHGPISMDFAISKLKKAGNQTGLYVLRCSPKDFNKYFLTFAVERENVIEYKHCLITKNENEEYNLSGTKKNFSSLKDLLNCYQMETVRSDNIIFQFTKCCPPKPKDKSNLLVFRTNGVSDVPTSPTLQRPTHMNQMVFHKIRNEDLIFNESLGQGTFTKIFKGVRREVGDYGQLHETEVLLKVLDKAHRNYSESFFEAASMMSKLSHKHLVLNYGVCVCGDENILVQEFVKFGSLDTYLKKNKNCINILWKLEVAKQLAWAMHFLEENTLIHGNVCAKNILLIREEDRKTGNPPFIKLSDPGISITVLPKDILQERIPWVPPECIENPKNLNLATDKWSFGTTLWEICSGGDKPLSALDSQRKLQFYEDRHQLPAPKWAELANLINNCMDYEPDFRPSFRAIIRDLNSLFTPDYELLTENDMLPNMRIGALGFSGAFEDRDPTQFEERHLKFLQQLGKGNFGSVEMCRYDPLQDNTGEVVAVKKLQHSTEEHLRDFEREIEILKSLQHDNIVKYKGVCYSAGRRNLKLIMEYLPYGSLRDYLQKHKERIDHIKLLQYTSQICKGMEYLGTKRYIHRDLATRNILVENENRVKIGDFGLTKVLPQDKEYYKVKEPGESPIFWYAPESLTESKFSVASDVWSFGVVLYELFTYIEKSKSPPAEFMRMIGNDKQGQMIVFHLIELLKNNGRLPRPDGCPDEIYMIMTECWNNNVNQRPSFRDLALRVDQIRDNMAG

[6] = KF48, 30 min treatment then 48 h in growth media, FIG. 5B

## CC(C)(O)/C=C/C(=O)[C@](C)(O)[C@H]1[C@H](O)C[C@@]2(C)[C@@H]3CC=C4[C@@H](C=C(O)C(=O)C4(C)C)[C@]3(C)C(=O)C[C@]12C [Cucurbitacin I]
KF48 keloid fibroblasts [1]; KF48, FIG. 6C
  exposure that seemed to cause cell death: ≥ 5 µM
KF48 keloid fibroblasts [1]; KF48, examined daily over 4 days, vs DMSO and untreated
  concentration as low as, able to inhibit cell proliferation: 1 µM
KF48 keloid fibroblasts [1]; higher doses, FIGS. 6C and 8D
  observations at higher doses: cell morphology changes and the beginning of some cell death
KF48 keloid fibroblasts [2]; 1 μM for 30 min, 22 h after wounding, vs DMSO, P<0.001
  cell migration at 22 h: significant reduction in cell migration
KF48 keloid fibroblasts [2]; 1 μM for 30 min, 48 h after wounding, vs DMSO
  cell migration at 48 h: delayed migration
KF48 keloid fibroblasts [2]; 1 μM for 30 min, compared to DMSO control, FIG. 8D
  migration of KF48, scratch assay: decelerated the migration
KF48 keloid fibroblasts [2]; keloid fibroblasts
  concentration as low as, effective in decreasing rate of migration to that of normal fibroblasts: 1 µM
collagen
  inhibition of collagen production: dose-dependent inhibition
A549 tumor
  inhibition of A549 tumor growth: 55.4%
Stat3 [3]; KF48, 30 min treatment then 48 h
  effective concentration as low as (inhibition of pY705 Stat3, pS727 Stat3 and collagen production): 1 μM
Stat3 [3]; KF48, 30 min treatment then 48 h, FIG. 5B
  Stat3 expression: dose-dependent decrease
Stat3 [3]; [6]
  inhibition of pS727 Stat3: dose-dependent inhibition
  inhibition of pY705 Stat3: dose-dependent inhibition
Stat3 [4]
  inhibition of activation of STAT 3: inhibit
[5]
  apoptosis: 9.8%
  tumor cell death: 33%
JAK2
  inhibition of activation of JAK2: inhibit
  potency on pJak2 relative to pSTAT 3: more potent inhibitor of pJak2 than pSTAT 3
